{
  "source": "patent US20060217445A1",
  "about": "“Natural astaxanthin extract reduces dna oxidation” (priority 2003, published 2006)",
  "key": {"[1]": {"conditions": "cited from earlier work"}, "[2]": {"test_system": "cytotoxic T lymphocyte activity and IFN-γ production", "conditions": "astaxanthin-fed mice; cited from earlier work"}, "[3]": {"test_system": "UVA-induced oxidative stress", "conditions": "in vitro; cited from earlier work"}, "[4]": {"assay": "Plasma astaxanthin by reverse phase HPLC in supplemented human subjects", "format": "in vivo", "design": "Astaxanthin Levels (plasma): unit not given here", "conditions": "for Astaxanthin Levels (plasma): oral", "description": "(§1) Free-living healthy female Korean subjects (average age 21.5 years) were recruited at Inha University, Korea. A three-day dietary record was obtained prior to the study to provide background dietary information. Subjects had no history of diabetes, cancer or alcohol abuse, and were non-smokers. They were allowed to consume their normal diets but advised to restrain from eating astaxanthin-rich foods. Subjects were assigned to receive 0 (control), 2, or 8 mg astaxanthin (109 g astaxanthin/kg oleoresin concentrate from Haematococcus pluvialis, astaZanthin™, La Haye Laboratories Inc., Redmond, Wash.) (n=14 subjects/diet) for eight weeks in a double-blind placebo control study. The astaxanthin was administered in the form of one soft gel capsule taken every morning. Blood was again drawn on week 0, 4 and 8 to assess immune function and oxidative status.\nHPLC. Astaxanthin content in plasma was analyzed by reverse phase HPLC (Alliance 2690 Waters HPLC system fitted with a photodiode array detector, Waters, Milford, Mass.) as previously described (Park et al., J Nutr. 128(10):1650-1656, 1998). Trans-β-apo-8′carotenal (Sigma Chem. Co., St. Louis, Mo.) was used as the internal standard."}, "splenocytes": {"test_system": "splenocytes", "conditions": "mice; cited from earlier work"}, "[5]": {"test_system": "CD3 (total T), CD4 (Th), CD8 (Tc), NK, CD21 (B cells)", "assay": "Leukocyte subsets by flow cytometry", "format": "in vivo, human", "description": "as §1\n(§2) Leukocyte subset. Subpopulations of CD3 (total T), CD4 (Th), CD8 (Tc), NK (natural killer), and CD21 (B cells) were quantitated by flow cytometry as previously described (Chew et al. 2000). In addition, the distribution of the cell surface adhesion molecules ICAM-1 (CD54), LFA-1 (CD11a) and LFA-3 (CD58), also was measured by flow cytometry. The population of total T cells was higher (P<0.05) in astaxanthin-fed (both levels) subjects than unsupplemented controls on wk 4 and 8 (FIG. 6). The population of B cells also was higher (P<0.05) in subjects given 2 mg astaxanthin after 8 weeks (FIG. 7)."}, "rats": {"test_system": "rats", "conditions": "rats fed 400 ppm for 41 days; cited from earlier work"}, "[6]": {"test_system": "ICAM-1 (CD54), LFA-1 (CD11a) and LFA-3 (CD58)", "assay": "Cell surface adhesion molecules by flow cytometry", "format": "in vivo, human", "conditions": "for frequency of cells expressing LFA-1 marker: week 8 (control 31.8%)", "description": "as §1, §2"}, "human subjects": {"test_system": "human subjects", "assay": "Delayed-type hypersensitivity (DTH) response to intracutaneous tuberculin", "format": "in vivo", "description": "as §1\nDelayed-type hypersensitivity. Delayed-type hypersensitivity (DTH) response to an intracutaneous injection of tuberculin (Mono-Vacc Test (O.T.), Pasteur Merieux Connaught, France) was assessed on week 8. The injection was administered by a physician and skin thickness and induration were measured at 0, 24, 48 and 72 hours after challenge. In general, DTH response was maximal at 48 to 72 h post-injection (FIG. 9). Subjects fed 2 mg astaxanthin had higher (P<0.08) DTH response than unsupplemented controls."}, "[7]": {"test_system": "peripheral blood mononuclear cell (PBMC)", "assay": "Mitogen-induced lymphoproliferation, whole blood cultures", "format": "in vivo, human", "conditions": "especially 8 mg; significant (P<0.05) on wk 8", "description": "as §1\nLymphoproliferation. The proliferation response of peripheral blood mononuclear cell (PBMC) to PHA (2 and 10 mg/L final concentration), concanavalin A (Con A; 2 and 10 mg/L), and pokeweed mitogen (PWM; 1 and 5 mg/L) was assessed using whole blood cultures as described (Chew et al., J Nutr. 130(8):1910-1913, 2000). Whole blood was cultured in order to mimic in vivo conditions. Results were calculated as stimulation index (cpm of mitogen-stimulated culture/cpm of unstimulated cultures). Astaxanthin supplementation, especially those given 8 mg astaxanthin, increased lymphocyte proliferation when stimulated by the T cell-dependent mitogens PHA (FIG. 2) and Con A (FIG. 3), and also B cell mitogen (PWM, FIG. 4). The increases were significant (P<0.05) on wk 8 for all mitogens."}, "K562 target cells": {"test_system": "K562 target cells", "assay": "Natural killer cell cytotoxic activity (PBMC effector, MTT)", "format": "in vivo, human", "conditions": "8 mg daily, wk 8, effector:target ratio 10:1, P<0.05", "description": "as §1\nNatural killer cell cytotoxic activity. Effector (PBMC) and target (K562) cells were cultured at effector:target ratios of 5:1 and 10:1 in Dulbecco's Modified Eagles Medium (Sigma, St. Louis, Mo.) containing 100 mL/L fetal bovine serum, 100 U/mL penicillin, and […] streptomycin sulfate. Killing was assessed using MTT. Percent of specific cytotoxicity calculated as follows: % Specific cytotoxicity=1−(ODeffector+target−ODeffector)/ODtarget×100. […]"}, "[8]": {"test_system": "8-epi-prostaglandin F2α (8-isoprostane)", "assay": "Lipid peroxidation: plasma 8-isoprostane by ELISA", "format": "in vivo, human", "conditions": "2 or 8 mg daily, 8 weeks", "description": "as §1\nLipid-peroxidation. Plasma concentrations of 8-epi-prostaglandin F2α (8-isoprostane) was measured by ELISA."}, "[9]": {"conditions": "mice fed the same amount of these carotenoids; cited from earlier work"}, "lipid peroxidation": {"test_system": "lipid peroxidation", "conditions": "cited from earlier work"}, "[10]": {"test_system": "8-Hydroxy-2′-deoxyguanosine (8-OHdG)", "assay": "Oxidative damage to DNA: plasma 8-OHdG by ELISA", "format": "in vivo, human", "design": "Average Levels of 8-OHdG (plasma): unit not given here", "conditions": "for Average Levels of 8-OHdG (plasma): oral", "description": "as §1\nOxidative damage to DNA. 8-Hydroxy-2′-deoxyguanosine (8-OHdG) was measured in plasma by ELISA (BIOXYTECH™ 8-OHhdG-EIA Kit, OxisResearch, Portland, Oreg.; sensitivity=0.5 μg/L)."}, "[11]": {"test_system": "splenocytes of tumor-bearing mice", "conditions": "dietary; cited from earlier work"}},
  "note": "“Also recorded” adds a separate entry of the source.",
  "data": [
    {"molecule": "CC1=C(/C=C/C(C)=C/C=C/C(C)=C/C=C/C=C(C)/C=C/C=C(C)/C=C/C2=C(C)C(=O)C(O)CC2(C)C)C(C)(C)CC(O)C1=O", "note": "(stereo not drawn) [astaxanthin, 3,3′-dihydroxy-beta,beta-carotene-4,4′-dione]", "values": [
      {"measurement": "solubility in oil", "setting": "[1]; oil", "value": "extremely low"},
      {"measurement": "solubility in water", "setting": "[1]; water", "value": "substantially insoluble"},
      {"measurement": "cytotoxic T lymphocyte activity and IFN-γ production", "setting": "[2]", "value": "increased"},
      {"measurement": "protection against UVA-induced oxidative stress relative to lutein and β-carotene", "setting": "[3]", "value": "approximately 100 fold"},
      {"measurement": "Astaxanthin Levels (plasma)", "setting": "[4]; 2 mg astaxanthin daily, 4 week", "value": 0.0960},
      {"measurement": "Astaxanthin Levels (plasma)", "setting": "[4]; 2 mg astaxanthin daily, 8 week", "value": 0.0921},
      {"measurement": "Astaxanthin Levels (plasma)", "setting": "[4]; 8 mg astaxanthin daily, 4 week", "value": 0.1309},
      {"measurement": "Astaxanthin Levels (plasma)", "setting": "[4]; 8 mg astaxanthin daily, 8 week", "value": 0.1162},
      {"measurement": "plasma astaxanthin prior to feeding", "setting": "[4]; week 0", "value": "undetectable"},
      {"measurement": "plasma astaxanthin, change on feeding", "setting": "[4]; weeks 4 and 8, dose-dependently, P<0.01", "value": "increased"},
      {"measurement": "ex vivo antibody response of splenocytes to T-cell antigens", "setting": "splenocytes", "value": "increased"},
      {"measurement": "population of B cells", "setting": "[5]; 2 mg daily, after 8 weeks, P<0.05", "value": "higher"},
      {"measurement": "population of B cells", "setting": "[5]; 8 mg daily", "value": "did not elevate"},
      {"measurement": "population of Th, Tc or NK cells or ratio of Th:Tc cells", "setting": "[5]; 2 or 8 mg daily", "value": "did not significantly influence"},
      {"measurement": "population of total T cells vs unsupplemented controls", "setting": "[5]; both levels (2 and 8 mg), wk 4 and 8, P<0.05", "value": "higher; also recorded: increased"},
      {"measurement": "effects on body/organ weight, enzyme activities, pregnancy, or litter size", "setting": "rats", "value": "no harmful effects"},
      {"measurement": "expression of LFA-1 adhesion molecules", "setting": "[6]; 2 mg daily, P<0.05", "value": "increased"},
      {"measurement": "frequency of cells expressing LFA-1 marker", "setting": "[6]; 2 mg daily", "value": 42.1, "unit": "%"},
      {"measurement": "frequency of cells expressing LFA-1 marker", "setting": "[6]; 8 mg daily", "value": 30.6, "unit": "%"},
      {"measurement": "ICAM-1 or LFA-3 expression", "setting": "[6]; 2 or 8 mg daily", "value": "No similar dietary effect"},
      {"measurement": "DTH response vs unsupplemented controls", "setting": "human subjects; 2 mg daily, week 8, P<0.08", "value": "higher"},
      {"measurement": "DTH response vs unsupplemented controls", "setting": "human subjects; 8 mg daily, week 8", "value": "did not show a similar heightened DTH response"},
      {"measurement": "Con A-induced lymphocyte proliferation (stimulation index)", "setting": "[7]", "value": "increased; also recorded: stimulated"},
      {"measurement": "PHA-induced lymphocyte proliferation (stimulation index)", "setting": "[7]", "value": "increased; also recorded: stimulated"},
      {"measurement": "PWM-induced lymphocyte proliferation (stimulation index)", "setting": "[7]", "value": "increased; also recorded: stimulated"},
      {"measurement": "NK cell cytotoxic activity", "setting": "K562 target cells", "value": "higher; also recorded: increased"},
      {"measurement": "lipid peroxidation measured in the plasma (8-isoprostane)", "setting": "[8]", "value": "did not significantly influence"},
      {"measurement": "concentration in plasma vs β-carotene, lutein", "setting": "[9]", "value": "much higher"},
      {"measurement": "inhibiting lipid peroxidation vs β-carotene and vitamin E", "setting": "lipid peroxidation", "value": "more effective"},
      {"measurement": "Average Levels of 8-OHdG (plasma)", "setting": "[10]; 2 mg astaxanthin daily, 0 week (baseline)", "value": 23.4},
      {"measurement": "Average Levels of 8-OHdG (plasma)", "setting": "[10]; 2 mg astaxanthin daily, 4 week", "value": 13.8},
      {"measurement": "Average Levels of 8-OHdG (plasma)", "setting": "[10]; 2 mg astaxanthin daily, 8 week", "value": 14.4},
      {"measurement": "Average Levels of 8-OHdG (plasma)", "setting": "[10]; 8 mg astaxanthin daily, 0 week (baseline)", "value": 23.5},
      {"measurement": "Average Levels of 8-OHdG (plasma)", "setting": "[10]; 8 mg astaxanthin daily, 4 week", "value": 15.3},
      {"measurement": "Average Levels of 8-OHdG (plasma)", "setting": "[10]; 8 mg astaxanthin daily, 8 week", "value": 13.2},
      {"measurement": "further decrease of DNA damage with higher dose", "setting": "[10]; 8 mg vs 2 mg daily", "value": "did not decrease further"},
      {"measurement": "plasma 8-oxodG concentration vs unsupplemented subjects", "setting": "[10]; 2 or 8 mg daily, as early as wk 4, P<0.01", "value": "dramatically lower"},
      {"measurement": "reduction in 8-OHdG (blood DNA damage)", "setting": "[10]; after 4 weeks of feeding", "value": "> 35", "unit": "%"}
    ]},
    {"molecule": "CC1=C[C@H](O)CC(C)(C)[C@H]1/C=C/C(C)=C/C=C/C(C)=C/C=C/C=C(C)/C=C/C=C(C)/C=C/C1=C(C)C[C@@H](O)CC1(C)C", "note": "[lutein]", "values": [
      {"measurement": "IFN-γ mRNA expression", "setting": "[11]", "value": "increased"},
      {"measurement": "expression of IL-10", "setting": "[11]", "value": "decreased"}
    ]}
  ]
}
